Several values for one entry are separate records, joined by “and”; a condition that tells them apart may be missing. Equal values may be shown once. Read-outs that look alike come from different tables or passages of the source. Positions of bridges follow the written chain, without caps; N, C: chain ends. Residues, ends and D or L forms follow the SMILES beside them.
Assays:
[1] = in vitro; conditions: male, human, serum
[2] = target: T1, human α9α10 nAChRs (Homo sapiens, UniProt Q9GZZ6+Q9UGM1); test: cell-based; format: cell-based
T1 construct: expressed in transfected cells; host or cells: Xenopus laevis oocytes (cRNA injection)

[3] = system: rat N-type (Cav2.2) calcium channels; format: cell-based; conditions: read-out: IC50 rN-type (Cav2.2)
[4] = system: recombinant human Cav2.3 calcium channels; format: cell-based; conditions: read-out: IC50 hCav2.3
[5] = system: rat α9α10 nAChRs; conditions: cited from earlier work
[6] = system: rat N-type (Cav2.2) calcium channels; conditions: read-out: IC50 rN-type (Cav2.2); cited from earlier work
[7] = system: recombinant human Cav2.3 calcium channels; conditions: read-out: IC50 hCav2.3; cited from earlier work

T1 sequence (Q9UGM1 26-479 limits assumed): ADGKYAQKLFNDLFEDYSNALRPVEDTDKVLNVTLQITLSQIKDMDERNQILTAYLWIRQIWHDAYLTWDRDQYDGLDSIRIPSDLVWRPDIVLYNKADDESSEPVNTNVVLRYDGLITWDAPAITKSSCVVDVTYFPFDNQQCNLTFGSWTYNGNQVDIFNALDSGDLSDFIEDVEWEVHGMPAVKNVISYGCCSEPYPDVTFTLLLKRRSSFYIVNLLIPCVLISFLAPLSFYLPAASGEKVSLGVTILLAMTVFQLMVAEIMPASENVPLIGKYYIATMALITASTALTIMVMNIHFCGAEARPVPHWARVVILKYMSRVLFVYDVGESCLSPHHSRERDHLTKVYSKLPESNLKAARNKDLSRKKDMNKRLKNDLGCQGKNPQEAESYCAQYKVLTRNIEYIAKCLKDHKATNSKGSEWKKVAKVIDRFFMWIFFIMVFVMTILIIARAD
T1 sequence (Q9GZZ6 25-450): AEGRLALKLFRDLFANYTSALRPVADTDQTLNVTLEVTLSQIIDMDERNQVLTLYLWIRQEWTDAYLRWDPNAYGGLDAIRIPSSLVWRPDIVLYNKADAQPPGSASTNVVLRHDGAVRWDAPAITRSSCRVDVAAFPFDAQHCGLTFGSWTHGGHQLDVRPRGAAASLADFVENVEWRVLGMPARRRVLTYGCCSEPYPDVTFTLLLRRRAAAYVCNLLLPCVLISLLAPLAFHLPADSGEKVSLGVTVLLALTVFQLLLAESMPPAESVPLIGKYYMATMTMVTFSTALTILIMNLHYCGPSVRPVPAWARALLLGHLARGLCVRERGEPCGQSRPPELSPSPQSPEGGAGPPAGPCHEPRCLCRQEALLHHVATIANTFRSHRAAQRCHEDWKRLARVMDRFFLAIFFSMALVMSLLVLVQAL

## CC[C@H](C)[C@@H]1NC(=O)[C@H](CCC(=O)O)NC(=O)[C@@H]2CCCN2C(=O)[C@H](Cc2cnc[nH]2)NC(=O)[C@H](CC(=O)O)NC(=O)[C@H](Cc2ccc(O)cc2)NC(=O)[C@H](CC(N)=O)NC(=O)[C@H](Cc2ccccc2)NC(=O)[C@H](CCCNC(=N)N)NC(=O)[C@@H]2CCCN2C(=O)[C@H](CC(=O)O)NC(=O)[C@H](CO)NC(=O)[C@@H]2CSSC[C@H](NC1=O)C(=O)NCC(=O)NCC(=O)N[C@@H](C)C(=O)N[C@@H](C)C(=O)NCC(=O)NCC(=O)NCC(=O)N[C@@H](Cc1cnc[nH]1)C(=O)N2 [hcVc1.1] (cyclo(AAGGGHCSDPRFNYDHPEICGG); disulfide 7-20)
[1]
  remaining at 24 h: ~90%

## CC[C@H](C)[C@@H]1NC(=O)[C@H](CCC(=O)O)NC(=O)[C@@H]2CCCN2C(=O)[C@H](Cc2cnc[nH]2)NC(=O)[C@H](CC(=O)O)NC(=O)[C@H](Cc2ccc(O)cc2)NC(=O)[C@H](CC(N)=O)NC(=O)[C@@H]2CSSC[C@H](NC(=O)CN)C(=O)N[C@@H](CSSC[C@@H](C(N)=O)NC1=O)C(=O)N[C@@H](CO)C(=O)N[C@@H](CC(=O)O)C(=O)N1CCC[C@H]1C(=O)N[C@@H](CCCNC(=N)N)C(=O)N2 [Vc1.1, reference compound]
[2]
  IC50: 320 nM

## CC[C@H](C)[C@@H]1NC(=O)[C@H](CCC(=O)O)NC(=O)[C@@H]2CCCN2C(=O)[C@H](Cc2c[nH]cn2)NC(=O)[C@H](CC(=O)O)NC(=O)[C@H](Cc2ccc(O)cc2)NC(=O)[C@H](CC(N)=O)NC(=O)[C@H](Cc2ccccc2)NC(=O)[C@H](CCCNC(=N)N)NC(=O)[C@@H]2CCCN2C(=O)[C@H](CC(=O)O)NC(=O)[C@H](CO)NC(=O)[C@@H]2CSSC[C@H](NC1=O)C(=O)NCC(=O)NCC(=O)N[C@@H](C)C(=O)N[C@@H](C)C(=O)NCC(=O)NCC(=O)NCC(=O)N[C@@H](Cc1c[nH]cn1)C(=O)N2 [hcVc1.1] (cyclo(AAGGGHCSDPRFNYDHPEICGG); disulfide 7-20)
[2]
  lower potency than cVc1.1 at human recombinant α9α10 nAChR currents: two-fold
[3]
  IC50: ~0.9 nM and 0.857 nM
[4]
  IC50: ~0.9 nM and 0.961 nM

## CC[C@H](C)[C@@H]1NC(=O)[C@H](CCC(=O)O)NC(=O)[C@@H]2CCCN2C(=O)[C@H](Cc2c[nH]cn2)NC(=O)[C@H](CC(=O)O)NC(=O)[C@H](Cc2ccc(O)cc2)NC(=O)[C@H](CC(N)=O)NC(=O)[C@@H]2CSSC[C@@H]3NC(=O)CNC(=O)CNC(=O)CNC(=O)[C@H](C)NC(=O)[C@H](C)NC(=O)CNC(=O)CNC(=O)[C@H](CSSC[C@H](NC3=O)C(=O)N[C@@H](CO)C(=O)N[C@@H](CC(=O)O)C(=O)N3CCC[C@H]3C(=O)N[C@@H](CCCNC(=N)N)C(=O)N2)NC1=O [cVc1.1]
[5]
  IC50: 765 nM
[6]
  IC50: 0.3 nM
[7]
  IC50: 0.29 nM

— article PMC4542547 (Scientific Reports, 2015)
